In patent publication US7531164B2 (priority 2005, dated 2009):

Columns and labels:
VSV = assay type: cell-based
AMLV = assay type: cell-based; settings: AMLV envelope
HIV (denoted NL4-3) = assay type: cell-based; settings: NL4-3 envelope
[1] = Working Example XIV: unstable angina patient, abciximab plus NO inhibitor/scavenger; assay type: in vivo, human; settings: L-NMA (5g) or 10 mg vitamin B-12 IV with abciximab and heparin; at 30 days
Method: A patient with unstable angina presents to the emergency room.
Abciximab is administered at 0.25 mg/kg as an intravenous bolus followed by infusion of […] for 12 hours. Heparin is concurrently administered in a different line with an initial dosage of 70 μg/kg with continuing infusion to maintain ACT of 200-300.
L-NMA (5g) or 10 mg vitamin B-12 is administered IV through a different line.
Need for urgent revascularization is only 2% at 30 days.

[2] = Working Example XII: atherosclerosis patient, anti-VEGFR plus NO inhibitor/scavenger; assay type: in vivo, human; settings: 2 gms/day L-NMA or 10 mg/day vitamin B-12 with 100 mg/kg anti-VEGFR three times a week; six months later
Method: A person with atherosclerosis is administered 100 mg/kg anti-VEGFR three times a week via infusion and 2 gms/day of L-NMA or 10 mg/day vitamin B-12.

[3] = system: EGFR expressing metastatic colorectal cancer; test: Working Example XIII: EGFR expressing metastatic colorectal cancer patient; assay type: in vivo, human; settings: 5 gm L-NMA or 10 mg vitamin B12 infused concurrently with cebuximab
Method: A person with EGFR expressing metastatic colorectal cancer is given an initial loading dose of 400 mg/m^2 cebuximab as a 120 minute infusion at 2.5 mL/min with weekly maintenance doses of 250 mg/M^2 over 60 minutes at 2.5 mL/min. Concurrently the patient is infused with 5 gm L-NMA or 10 mg vitamin B12.

E.coli and HIV = test: Working Example II: prophylaxis after exposure to blood infected by E.coli and HIV; assay type: in vivo, human; settings: B12 10 mg with AZT 600 mg and ampicillin 1 gm for 6 days; at a week
Method: A patient is exposed to blood infected by “E.coli” and HIV following coronary artery bypass surgery. AZT (prophylactic dose of 600 mg) and B12 (which scavenges NO) (dose 10 mg) are given in combination with ampicillin (prophylactic dose of 1 gm) for 6 days Bacterial and HIV titer are undetectable at a week.

colon cancer = test: Working Example III: prophylaxis of colon cancer in immunocompromised patient; assay type: in vivo, human; settings: 5 gm LNMA or 10 mg vitamin B12 infused concurrently with cetuximab; two years later
Method: An immunocompromised patient at risk for colon cancer is given an initial loading dose of 200 mg/M^2 cetuximab as a 120 minute infusion with weekly maintenance doses of 125 mg/M^2 over 60 minutes weekly. Perfusion rate is 4 mL/min. Concurrently the patient is infused with 5 gm LNMA or 10 mg vitamin B12.
For each 50 ml vial: • 100 mg cetuximab • at a concentration of 2 mg/ml • 1mg LNMA or 2 mg Vitamin B-12 • 8.48 mg/ml sodium chloride • 1.88 mg/ml sodium phosphate dibasic heptahydrate • 0.42 mg/ml sodium phosphate monohydrate • water for injection to […]
The composition is administered in the case of Working Example III.

hepatitis C = test: Working Example XI: transfusion of hepatitis C infected whole blood containing L-NMA; assay type: in vivo, human; settings: whole blood containing 1 gm L-NMA per unit, infected with hepatitis C
Description: Whole blood containing 1 gm L-NMA per unit is transfused into a patient.

HIV = test: Working Example I: prophylaxis after exposure to HIV positive partner; assay type: in vivo, human; settings: 1 gm L-NMMA Q 6 hrs for 3 days with AZT 600 mg; day 7
Method: A person finds that their partner the previous night is HIV positive. They present to the Emergency Room where they are given a prophylactic dose of AZT (600 mg dose) and a dose of 1 gm L-NMMA Q 6 hrs for 3 days. Blood titers for HIV are restive at day 7.

influenza A = test: Working Example XVII: prophylaxis in immunocompromised patient exposed to influenza; assay type: in vivo, human; settings: 5 gms/day L-NMA p.o. for one week, then amantadine 100 mg p.o. b.i.d. for two weeks
Method: An immunocompromised patient is exposed to a patient diagnosed with influenza. The patient is given 5 gms/day L-NMA p.o. After one week the patient tests positive for influenza A and L-NMA administration is stopped and the patient is given amantadine, 100 mg p.o., b.i.d. for two weeks.

[4] = Working Example V: asthma exacerbation frequency; assay type: in vivo, human; settings: 1 gm/day LNMA four times a week for a year; normally four exacerbations of asthma per year
Description: An asymptomatic person who normally has four exacerbations of asthma per year is given 1 gm/day LNMA four times a week for a year. Exacerbation frequency decreases to once a year.

[5] = Working Example IV: beta agonist response in heart failure patient; assay type: in vivo, human; settings: 0.1 mg/kg LNMA for 24 hours; improves from 3 L/min
Method: A person with heart failure is admitted to a hospital for a dobutamine holiday (where a congestive heart failure patient spends 1-2 days in the hospital to receive a dobutamine drip every month or so). The patient is administered 0.1 mg/kg LNMA for 24 hours. Beta agonist sensitive response as measured by cardiac output improves from 3 L/min. to 3.5 L/min.

[6] = compared to envelope protein with no anti-CD4 or inhibitor

Structure (SMILES)	% Infection (VSV) [%]	Mean (cells infected) (VSV)	Mean (cells infected) (AMLV; […], no-inhibitor AMLV mean 164904)	% Infection (AMLV; [6]) [%]	Mean (cells infected) (HIV (denoted NL4-3); […], no-inhibitor NL4-3 mean 108400, cells only 66)	% Infection (HIV (denoted NL4-3); [6]) [%]	Need for urgent revascularization [1] [%]	plaque destabilization and heart attack [2]	disease related symptoms [3]	Bacterial and HIV titer (E.coli and HIV)	colon cancer status (colon cancer)	development of hepatitis C (hepatitis C)	Blood titers for HIV (HIV)	Flu symptoms (influenza A)	Exacerbation frequency [4]	Beta agonist sensitive response as measured by cardiac output [5] [L/min]
COC(=O)[C@@H](N)CCCNC(=N)N[N+](=O)[O-] [Inhibitor A, N^G-nitro-L-arginine methyl ester]	41.9	120209	60090	36.4	50359	46.5										
C/C1=C2/[N-][C@H]([C@H](CC(N)=O)[C@@]2(C)CCC(=O)NC[C@@H](C)OP(=O)([O-])O[C@H]2[C@@H](O)[C@@H](n3cnc4cc(C)c(C)cc43)O[C@@H]2CO)[C@]2(C)N=C(/C(C)=C3N=C(/C=C4N=C1[C@@H](CCC(N)=O)C\4(C)C)[C@@H](CCC(N)=O)[C@]\3(C)CC(N)=O)[C@@H](CCC(N)=O)[C@]2(C)CC(N)=O.[Co+3].[OH-] [vitamin B12, hydroxocobalamin]							2	plaque is not destabilized and no heart attack has occurred	Improvement in disease related symptoms is noted	undetectable	colon cancer free					
CNC(=N)NCCC[C@H](N)C(=O)O [L-NMA, L-methylarginine]							2	plaque is not destabilized and no heart attack has occurred	Improvement in disease related symptoms is noted		colon cancer free	does not develop hepatitis C	restive	Flu symptoms disappear	once a year	3.5
